Data reported in ChEMBL document CHEMBL1201862, “PubChem BioAssay data set” (2004).
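Compound exposure: 48 hours, 5 concentrations, 96-well plates. GI50 marks 50% less growth.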 The source made the active and inactive calls. Rule as the data show it: active = GI50 up to about 1.1 µM and inactive = higher.

What was measured:
Experiment in all cases: NCI-60 cell line screen, 48 h
UO-31 = system: UO-31
SK-MEL-28 = system: SK-MEL-28
M14 = system: M14
OVCAR-8 = system: OVCAR-8
MDA-MB-231 = system: MDA-MB-231
NCI/ADR-RES = system: NCI/ADR-RES
SF-539 = system: SF-539
NCI-H226 = system: NCI-H226
T47D = system: T47D
SK-OV-3 = system: SK-OV-3
COLO 205 = system: COLO 205
LOX IMVI = system: LOX IMVI
UACC-62 = system: UACC-62
A549 = system: A549
SNB-19 = system: SNB-19
SF-268 = system: SF-268
HOP-92 = system: HOP-92
KM12 = system: KM12
SK-MEL-2 = system: SK-MEL-2

Measured: GI50

CCOC(=O)c1ccc(-c2cc(C)no2)[nH]1
inactive: UO-31 > 100 µM | SK-MEL-28 > 100 µM | M14 > 100 µM | OVCAR-8 > 100 µM | MDA-MB-231 76 µM | NCI/ADR-RES 46.7 µM | SF-539 > 100 µM | NCI-H226 > 100 µM | T47D 68.5 µM | SK-OV-3 > 100 µM | COLO 205 40 µM | LOX IMVI > 100 µM | UACC-62 59.8 µM | A549 51.5 µM | SNB-19 > 100 µM | SF-268 > 100 µM | HOP-92 > 100 µM | KM12 31.8 µM | SK-MEL-2 > 100 µM

O=C(O)C(Cc1ccc(O)c([N+](=O)[O-])c1)N1C(=O)c2ccccc2C1=O (stereo not given)
inactive: UO-31 > 100 µM | SK-MEL-28 > 100 µM | M14 > 100 µM | OVCAR-8 > 100 µM | MDA-MB-231 > 100 µM | NCI/ADR-RES > 100 µM | SF-539 > 100 µM | NCI-H226 > 100 µM | T47D > 100 µM | SK-OV-3 > 100 µM | COLO 205 > 100 µM | LOX IMVI > 100 µM | UACC-62 > 100 µM | A549 > 100 µM | SNB-19 > 100 µM | SF-268 > 100 µM | HOP-92 > 100 µM | KM12 > 100 µM | SK-MEL-2 > 100 µM

CN(C)CC(C)(C)CN1c2ccccc2Sc2ccccc21
inactive: SK-MEL-28 13.5 µM | M14 10.4 µM | OVCAR-8 15.3 µM | MDA-MB-231 12 µM | NCI/ADR-RES 12.7 µM | SF-539 19.7 µM | NCI-H226 18 µM | T47D 14.2 µM | SK-OV-3 13.2 µM | COLO 205 12.2 µM | LOX IMVI 13.6 µM | UACC-62 14.9 µM | A549 15.5 µM | SNB-19 15.6 µM | SF-268 14.5 µM | HOP-92 11.8 µM | KM12 12.8 µM | SK-MEL-2 15.4 µM

CC(=O)OCC1OC(N2C(=O)NC(=O)C3C=C4CCCCC4=CC32)CC1OC(C)=O (stereo not given)
inactive: UO-31 > 100 µM | SK-MEL-28 > 100 µM | M14 > 100 µM | OVCAR-8 > 100 µM | MDA-MB-231 > 100 µM | NCI/ADR-RES > 100 µM | SF-539 > 100 µM | NCI-H226 > 100 µM | T47D > 100 µM | SK-OV-3 > 100 µM | LOX IMVI > 100 µM | UACC-62 > 100 µM | A549 > 100 µM | SNB-19 > 100 µM | SF-268 > 100 µM | HOP-92 > 100 µM | KM12 > 100 µM | SK-MEL-2 > 100 µM

N#CC1=C(N)OC2=C(CSc3ccccc32)C1c1ccc(Br)cc1 (stereo not given)
inactive: UO-31 11.5 µM | SK-MEL-28 12.9 µM | M14 9.27 µM | OVCAR-8 2.75 µM | MDA-MB-231 11.7 µM | NCI/ADR-RES 2.15 µM | SF-539 3.52 µM | NCI-H226 11.5 µM | T47D 4.04 µM | SK-OV-3 13.4 µM | COLO 205 2.94 µM | LOX IMVI 2.6 µM | UACC-62 6.65 µM | A549 7.08 µM | SNB-19 17.7 µM | SF-268 11.1 µM | HOP-92 6.78 µM | KM12 4.37 µM | SK-MEL-2 5.7 µM

Cn1c(C(C#N)c2cc(Cl)ncn2)nc2ccccc21 (stereo not given)
inactive: UO-31 > 100 µM | SK-MEL-28 > 100 µM | M14 > 100 µM | OVCAR-8 > 100 µM | MDA-MB-231 > 100 µM | NCI/ADR-RES > 100 µM | SF-539 > 100 µM | NCI-H226 > 100 µM | T47D > 100 µM | SK-OV-3 > 100 µM | COLO 205 > 100 µM | LOX IMVI > 100 µM | A549 > 100 µM | SNB-19 > 100 µM | SF-268 > 100 µM | HOP-92 > 100 µM | KM12 > 100 µM
